Measurements taken from ChEMBL document CHEMBL6096712, “Ligand Design with Accelerated Disulfide Formation with Serum Albumin to Extend Blood Retention” (ACS Med Chem Lett, 2025).

Experiments:
Assay type in all cases: ADME, organism-based
[1] = AUCt in C57BL/6N mouse at 0.171 mM, iv measured upto 24 hrs; details: in vivo
[2] = Clearance in C57BL/6N mouse at 0.171 mM, iv measured upto 24 hrs; details: in vivo
[3] = Terminal half life in C57BL/6N mouse at 0.171 mM, iv measured upto 24 hrs; details: in vivo, read-out: beta t1/2 (converted)
[4] = Primary phase half life in C57BL/6N mouse at 0.171 mM, iv measured upto 24 hrs; details: in vivo, read-out: alphat1/2 (converted)
[5] = Volume of distribution in C57BL/6N mouse at 0.171 mM, iv measured upto 24 hrs; details: in vivo

AUC(0-t) at 24 h, 171 µM [1]	clearance at 171 µM [2]	half-life at 171 µM [3]	half-life at 171 µM [4]	Vd at 171 µM [5]	SMILES
146000 ng·h/mL	0.135 mL/min/kg	7.62 h	1.51 h	0.0284 L/kg	CCCCCCCCCCCCCCCC(=O)NCCCCC(NC(=O)COCCOCCNC(=O)CCCCC[N+]1=C(/C=C/C2=CC(=C/C=C3/N(C)c4ccc(S(=O)(=O)O)cc4C3(C)C)/CCC2)C(C)(C)c2cc(S(=O)(=O)[O-])ccc21)C(=O)NCCOCCOCC(=O)NCCOCCOCC(=O)NC(CSSc1ccccn1)C(N)=O (centres undefined)
50500 ng·h/mL	0.307 mL/min/kg	4.73 h	1.26 h	0.0413 L/kg	CN1/C(=C/C=C2C=C(/C=C/C3=[N+](CCCCCC(=O)NCCOCCOCC(=O)NCCOCCOCC(=O)NCCOCCOCC(=O)NC(CSSc4ccccn4)C(N)=O)c4ccc(S(=O)(=O)[O-])cc4C3(C)C)CCC/2)C(C)(C)c2cc(S(=O)(=O)O)ccc21 (centres undefined)
30800 ng·h/mL	0.563 mL/min/kg	0.83 h		0.0427 L/kg	CCCCCCCCCCCCCCCC(=O)NCCCCC(NC(=O)COCCOCCNC(=O)CCCCC[N+]1=C(/C=C/C2=CC(=C/C=C3/N(C)c4ccc(S(=O)(=O)O)cc4C3(C)C)/CCC2)C(C)(C)c2cc(S(=O)(=O)[O-])ccc21)C(=O)NCCOCCOCC(=O)NCCOCCOCC(N)=O (centres undefined)
